# US9777005B2 (Takeda Pharmaceutical Company Limited, priority 2012, dated 2017)
# pEC50: −log10 of the molar value.
# Target: T1, human M1 receptor (hCHRM1) (Homo sapiens, UniProt P11229)
# T1 construct: expressed in transfected cells; host or cells: CHO-K1
# T1 sequence (P11229 1-460): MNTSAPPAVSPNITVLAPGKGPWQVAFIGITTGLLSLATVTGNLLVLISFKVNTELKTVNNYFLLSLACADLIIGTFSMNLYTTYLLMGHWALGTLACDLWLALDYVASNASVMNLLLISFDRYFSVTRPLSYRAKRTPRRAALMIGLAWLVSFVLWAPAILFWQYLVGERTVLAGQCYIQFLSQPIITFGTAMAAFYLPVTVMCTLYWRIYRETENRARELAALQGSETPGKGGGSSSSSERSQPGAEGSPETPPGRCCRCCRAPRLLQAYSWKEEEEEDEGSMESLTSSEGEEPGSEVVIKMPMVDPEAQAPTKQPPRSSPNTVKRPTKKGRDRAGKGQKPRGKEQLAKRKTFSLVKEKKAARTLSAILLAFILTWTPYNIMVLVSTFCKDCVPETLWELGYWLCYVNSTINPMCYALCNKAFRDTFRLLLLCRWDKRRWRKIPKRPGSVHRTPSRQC
# Assay: Measurement of M1 receptor positive allosteric modulator (M1PAM) activity, calcium fluorescence (FLIPRtetra) in CHO-K1 cells in the presence of acetylcholine at EC20
# Format: cell-based
# Conditions: in the presence of acetylcholine at EC20 (final 0.6 nM), CHO-K1 cells expressing hCHRM1; for pEC50: inflection point of M1PAM activity, read-out: IP value; for activity (%) at 10 μM: test compound 10 μM
# Outline: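 PAM activity was measured as calcium flux by FLIPRtetra over 1 min after co-addition of compound and EC20 acetylcholine (final 0.6 nM) to Fluo-4-loaded hCHRM1 CHO-K1 cells. The response was scaled between DMSO (0%) and 1 μM acetylcholine (100%), and the inflection point of the concentration curve gives the IP value.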
SMILES,pEC50,activity (%) at 10 μM
"Cc1nn(C)cc1-c1ccc(CN2Cc3ccnc(Oc4c(F)cc(C#N)cc4F)c3C2=O)cc1 [Example 385, 4-((2-(4-(1,3-dimethyl-1H-pyrazol-4-yl)benzyl)-3-oxo-2,3-dihydro-1H-pyrrolo[3,4-c]pyridin-4-yl)oxy)-3,5-difluorobenzonitrile]",8.59,85%
"Cn1cc(-c2coc(CN3Cc4cccc(Oc5c(F)cccc5C#N)c4C3=O)c2)cn1 [Example 69, 3-fluoro-2-((2-((4-(1-methyl-1H-pyrazol-4-yl)-2-furyl)methyl)-3-oxo-2,3-dihydro-1H-isoindol-4-yl)oxy)benzonitrile]",6.39,103%
"O=C1c2c(ccnc2O[C@@H]2CCCC[C@H]2O)CN1Cc1cc(F)ccc1F (single isomer, unassigned) [Example 319, 2-(2,5-difluorobenzyl)-4-((trans-2-hydroxycyclohexyl)oxy)-1,2-dihydro-3H-pyrrolo[3,4-c]pyridin-3-one]",8.04,104%
"CCCc1ccc(Oc2nccc3c2C(=O)N(Cc2ccc(C(N)=O)c(F)c2)C3)c(F)c1 [Example 452, 2-fluoro-4-((4-(2-fluoro-4-propylphenoxy)-3-oxo-1,3-dihydro-2H-pyrrolo[3,4-c]pyridin-2-yl)methyl)benzamide]",7.35,102%
"Cc1nn(C)cc1-c1ccc(CN2Cc3ccnc(Oc4c(F)cccc4Cl)c3C2=O)cc1 [Example 281, 4-(2-chloro-6-fluorophenoxy)-2-(4-(1,3-dimethyl-1H-pyrazol-4-yl)benzyl)-1,2-dihydro-3H-pyrrolo[3,4-c]pyridin-3-one]",7.19,108%
"Cn1cc(-c2ccc(CN3Cc4cccc(Oc5ccc(C(O)C(F)(F)F)cc5F)c4C3=O)nc2)cn1 (stereo not drawn) [Example 389, 7-(2-fluoro-4-(2,2,2-trifluoro-1-hydroxyethyl)phenoxy)-2-((5-(1-methyl-1H-pyrazol-4-yl)pyridin-2-yl)methyl)isoindolin-1-one]",7.49,93%
"Cc1cc(-c2ccc(CN3Cc4ccnc(Oc5ccc(C#N)cc5F)c4C3=O)cc2)on1 [Example 373, 3-fluoro-4-((2-(4-(3-methyl-1,2-oxazol-5-yl)benzyl)-3-oxo-2,3-dihydro-1H-pyrrolo[3,4-c]pyridin-4-yl)oxy)benzonitrile]",7.35,103%
"Cc1cc(-c2ccc(CN3Cc4cccc(Oc5c(F)cccc5C#N)c4C3=O)cc2)ccn1 [Example 72, 3-fluoro-2-((2-(4-(2-methylpyridin-4-yl)benzyl)-3-oxo-2,3-dihydro-1H-isoindol-4-yl)oxy)benzonitrile]",7.06,102%
"Cn1cc(-c2ccc(CN3Cc4cccc(Oc5c(Cl)cccc5C#N)c4C3=O)cc2)cn1 [Example 9, 3-chloro-2-((2-(4-(1-methyl-1H-pyrazol-4-yl)benzyl)-3-oxo-2,3-dihydro-1H-isoindol-4-yl)oxy)benzonitrile]",7.47,93%
"O=C1c2c(cccc2O[C@@H]2CCOC[C@H]2O)CN1Cc1c(F)cc(F)cc1F (single isomer, unassigned) [Example 318, 1,5-anhydro-2-deoxy-3-O-(3-oxo-2-(2,4,6-trifluorobenzyl)-2,3-dihydro-1H-isoindol-4-yl)-threo-pentitol]",7.59,99%
Cn1cc(-c2ccc(CN3Cc4ccnc(OCC5CCCO5)c4C3=O)cc2)cn1 (stereo not drawn) [Example 285],8.00,95%
"CCNC(=O)c1ccc(CN2Cc3ccnc(Oc4ccc(C(F)(F)F)cc4F)c3C2=O)cc1F [Example 436, N-ethyl-2-fluoro-4-((4-(2-fluoro-4-(trifluoromethyl)phenoxy)-3-oxo-1,3-dihydro-2H-pyrrolo[3,4-c]pyridin-2-yl)methyl)benzamide]",7.39,106%
"Cn1ccc(-c2ccc(CN3Cc4ccnc(OCc5ccccc5F)c4C3=O)c(F)c2)n1 [Example 342, 4-((2-fluorobenzyl)oxy)-2-(2-fluoro-4-(1-methyl-1H-pyrazol-3-yl)benzyl)-1,2-dihydro-3H-pyrrolo[3,4-c]pyridin-3-one]",7.14,96%
"O=C1c2c(cccc2O[C@H]2CCCC[C@@H]2O)CN1Cc1ccc(-n2cccn2)cc1 (relative stereo) [Example 29, 7-((trans-2-hydroxycyclohexyl)oxy)-2-(4-(1H-pyrazol-1-yl)benzyl)isoindolin-1-one]",8.12,89%
"NC(=O)c1ccc(CN2Cc3ccnc(Oc4ccc(C(F)(F)F)cc4F)c3C2=O)cc1 [Example 422, 4-((4-(2-fluoro-4-(trifluoromethyl)phenoxy)-3-oxo-1,3-dihydro-2H-pyrrolo[3,4-c]pyridin-2-yl)methyl)benzamide]",7.92,107%
"O=C1c2c(cccc2Oc2c(F)cccc2Cl)CN1Cc1ccc(-c2ccnnc2)cc1 [Example 81, 7-(2-chloro-6-fluorophenoxy)-2-(4-(pyridazin-4-yl)benzyl)isoindolin-1-one]",6.77,57%
"O=C1c2c(cccc2O[C@H]2CCCC[C@@H]2O)CN1Cc1ccc(-c2ccn[nH]2)cc1 (relative stereo) [Example 31, 7-((trans-2-hydroxycyclohexyl)oxy)-2-(4-(1H-pyrazol-5-yl)benzyl)isoindolin-1-one]",8.07,105%
"CCCc1ccc(Oc2nccc3c2C(=O)N(Cc2ccc(C(=O)NC)cc2)C3)c(F)c1 [Example 451, 4-((4-(2-fluoro-4-propylphenoxy)-3-oxo-1,3-dihydro-2H-pyrrolo[3,4-c]pyridin-2-yl)methyl)-N-methylbenzamide]",7.96,105%
"Cn1ccc(-c2ccc(CN3Cc4ccnc(O[C@H]5CCC[C@@H]5O)c4C3=O)cc2)n1 (relative stereo) [Example 237, 4-((trans-2-hydroxycyclopentyl)oxy)-2-(4-(1-methyl-1H-pyrazol-3-yl)benzyl)-1,2-dihydro-3H-pyrrolo[3,4-c]pyridin-3-one]",7.64,108%
"Cc1nn(C)cc1-c1ccc(CN2Cc3ccnc(O[C@H]4CCCC[C@@H]4O)c3C2=O)s1 (relative stereo) [Example 402, 2-((5-(1,3-dimethyl-1H-pyrazol-4-yl)-2-thienyl)methyl)-4-((trans-2-hydroxycyclohexyl)oxy)-1,2-dihydro-3H-pyrrolo[3,4-c]pyridin-3-one]",8.34,104%
"O=C(NCC1CCCO1)c1ccc(CN2Cc3cccc(OCC4CCCO4)c3C2=O)cc1 (stereo not drawn) [Example 38, 4-((1-oxo-7-((tetrahydrofuran-2-yl)methoxy)-1,3-dihydro-2H-isoindol-2-yl)methyl)-N-((tetrahydrofuran-2-yl)methyl)benzamide]",7.36,118%
"Cn1cc(-c2ccc(CN3Cc4ccnc(OCc5ccccc5F)c4C3=O)c(F)c2)nn1 [Example 327, 4-((2-fluorobenzyl)oxy)-2-(2-fluoro-4-(1-methyl-1H-1,2,3-triazol-4-yl)benzyl)-1,2-dihydro-3H-pyrrolo[3,4-c]pyridin-3-one]",8.19,98%
"Cc1cc(-c2ccc(CN3Cc4cccc(OCC5CCCO5)c4C3=O)cc2)ccn1.Cl (stereo not drawn) [Example 353, 2-(4-(2-methylpyridin-4-yl)benzyl)-7-((tetrahydrofuran-2-yl)methoxy)isoindolin-1-one hydrochloride]",7.34,97%
"Cn1cc(-c2ccc(CN3Cc4ccnc(OC5CCC5)c4C3=O)c(F)c2)nn1 [Example 338, 4-(cyclobutyloxy)-2-(2-fluoro-4-(1-methyl-1H-1,2,3-triazol-4-yl)benzyl)-1,2-dihydro-3H-pyrrolo[3,4-c]pyridin-3-one]",7.72,98%
"Cn1cc(-c2ccc(CN3Cc4ncnc(OCc5ccc(F)cc5F)c4C3=O)cc2)nn1 [Example 340, 4-((2,4-difluorobenzyl)oxy)-6-(4-(1-methyl-1H-1,2,3-triazol-4-yl)benzyl)-6,7-dihydro-5H-pyrrolo[3,4-d]pyrimidin-5-one]",8.42,106%
"O=C1c2c(ccnc2OCC2CCCO2)CN1Cc1ccc(-c2cnn3c2CCCC3)cc1 (stereo not drawn) [Example 296, 4-((tetrahydrofuran-2-yl)methoxy)-2-(4-(4,5,6,7-tetrahydropyrazolo[1,5-a]pyridin-3-yl)benzyl)-1,2-dihydro-3H-pyrrolo[3,4-c]pyridin-3-one]",7.92,92%
"O=C1c2c(ccnc2OCC2CCCO2)CN1Cc1ccc(-c2cn[nH]c2)cc1 (stereo not drawn) [Example 286, 2-(4-(1H-pyrazol-4-yl)benzyl)-4-((tetrahydrofuran-2-yl)methoxy)-1,2-dihydro-3H-pyrrolo[3,4-c]pyridin-3-one]",7.89,99%
